Publication PMC10746543, “Design principles for cyclin K molecular glue degraders” (Nature Chemical Biology, 2023)
Values joined by “and” are separate entries in the source; they are usually repeats but may differ in a detail not shown here. Equal values may be shown once. Read-outs that look alike come from different tables or passages of the source.

Key:
[1] = system: cyclin K–eGFP degradation reporter; assay: Cyclin K reporter stability analysis (dual-color cyclin K–eGFP reporter); assay type: cell-based, human; conditions: source data sheet correlations; read-out: DC50
How it was run: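 Readout: flow-cytometric eGFP/mCherry ratio (geometric means, round mCherry+ gate) relative to the average of three DMSO wells. Reporter line was HEK293T–Cas9, treated 5 h with compound.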

[2] = molecular target: T1, CDK2–cyclin A (Homo sapiens, UniProt P24941); assay: Lanthascreen kinase binding assay, CDK2; conditions: for Lanthascreen signal, sheet CDK2: raw replicates
T1 construct: purchased Thermo Fisher
Method: (§1) Lanthascreen experiments were performed using commercially available reagents (Thermo Fisher) and according to the manufacturer’s instructions.

[3] = molecular target: T2, CDK9–cyclin T (Homo sapiens, UniProt P50750); assay: Lanthascreen kinase binding assay, CDK9; conditions: for Lanthascreen TR-FRET signal (raw ratio), sheet CDK9: duplicates
T2 construct: purchased Thermo Fisher
T2 sequence (P50750 whole entry): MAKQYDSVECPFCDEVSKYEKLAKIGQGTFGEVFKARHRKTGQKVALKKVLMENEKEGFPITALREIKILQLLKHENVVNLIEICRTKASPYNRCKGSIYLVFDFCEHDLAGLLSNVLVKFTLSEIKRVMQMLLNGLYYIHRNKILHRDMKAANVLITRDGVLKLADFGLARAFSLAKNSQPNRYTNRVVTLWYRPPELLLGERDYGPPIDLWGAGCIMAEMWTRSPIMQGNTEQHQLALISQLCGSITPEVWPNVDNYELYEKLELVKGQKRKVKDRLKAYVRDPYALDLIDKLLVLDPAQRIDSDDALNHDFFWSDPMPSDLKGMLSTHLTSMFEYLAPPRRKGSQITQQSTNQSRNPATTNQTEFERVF
T2 sequence (O60563 whole entry partner): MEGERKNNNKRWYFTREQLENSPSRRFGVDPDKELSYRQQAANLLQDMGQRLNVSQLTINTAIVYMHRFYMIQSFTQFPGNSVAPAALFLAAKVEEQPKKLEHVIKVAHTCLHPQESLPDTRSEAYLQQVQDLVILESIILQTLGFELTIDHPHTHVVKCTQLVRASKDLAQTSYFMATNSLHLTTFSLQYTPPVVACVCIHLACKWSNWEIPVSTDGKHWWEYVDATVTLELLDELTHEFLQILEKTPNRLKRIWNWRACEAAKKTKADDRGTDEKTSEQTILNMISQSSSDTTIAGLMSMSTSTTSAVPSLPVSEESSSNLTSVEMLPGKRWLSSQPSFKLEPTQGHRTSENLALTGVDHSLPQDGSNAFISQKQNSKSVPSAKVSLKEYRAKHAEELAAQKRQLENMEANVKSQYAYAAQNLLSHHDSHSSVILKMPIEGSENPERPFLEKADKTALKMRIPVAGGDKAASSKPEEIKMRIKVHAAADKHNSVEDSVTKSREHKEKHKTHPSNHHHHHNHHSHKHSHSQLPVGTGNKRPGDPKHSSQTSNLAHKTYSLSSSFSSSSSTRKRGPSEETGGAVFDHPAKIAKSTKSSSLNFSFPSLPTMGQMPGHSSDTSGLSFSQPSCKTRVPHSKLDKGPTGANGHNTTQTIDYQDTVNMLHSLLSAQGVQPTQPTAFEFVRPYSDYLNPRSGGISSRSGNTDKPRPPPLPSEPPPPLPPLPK
Method: as §1

[4] = molecular target: CDK12–cyclin K (Homo sapiens, UniProt Q9NYV4); assay: Lanthascreen kinase binding assay, CDK12; conditions: for Lanthascreen raw signal, sheet CDK12: duplicates
CDK12–cyclin K, sequence (Q9NYV4 713-1052): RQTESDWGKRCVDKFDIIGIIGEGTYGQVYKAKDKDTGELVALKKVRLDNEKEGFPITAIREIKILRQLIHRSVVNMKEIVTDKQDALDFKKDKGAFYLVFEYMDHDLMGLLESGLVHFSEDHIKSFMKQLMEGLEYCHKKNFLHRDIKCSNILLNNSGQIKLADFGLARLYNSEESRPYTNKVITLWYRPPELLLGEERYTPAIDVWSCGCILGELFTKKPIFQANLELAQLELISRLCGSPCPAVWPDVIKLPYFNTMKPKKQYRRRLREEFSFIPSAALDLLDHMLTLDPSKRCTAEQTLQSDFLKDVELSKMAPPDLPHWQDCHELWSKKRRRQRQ
CDK12–cyclin K, sequence (O75909 1-267 partner limits assumed): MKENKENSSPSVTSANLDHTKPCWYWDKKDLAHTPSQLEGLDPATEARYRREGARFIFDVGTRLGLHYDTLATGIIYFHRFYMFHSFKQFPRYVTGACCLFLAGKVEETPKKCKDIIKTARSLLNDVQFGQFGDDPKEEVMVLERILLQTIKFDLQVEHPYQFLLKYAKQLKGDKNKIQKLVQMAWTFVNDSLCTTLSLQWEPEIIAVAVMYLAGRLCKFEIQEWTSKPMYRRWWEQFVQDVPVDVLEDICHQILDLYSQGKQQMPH
Method: as §1

[5] = system: HEK293T cells; assay: Drug sensitivity assay (CellTiter-Glo viability) with or without MLN4924 pretreatment; assay type: cell-based, human; conditions: Supplementary Table 2
How it was run: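 Cas9-expressing HEK293T cells receive either vehicle or 100 nM MLN4924, then compounds 2 h afterwards. After three days, luminescence-based viability is measured and calculated relative to DMSO.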

- DC50 [1]: 633 nM
- Lanthascreen signal, sheet CDK2 ([2]; Compound 0.038147 nM, experiment r13-r23): 0.01324 and 0.0125
- Lanthascreen signal, sheet CDK2 ([2]; Compound 0.152588 nM, experiment r13-r23): 0.01322 and 0.0127
- Lanthascreen signal, sheet CDK2 ([2]; Compound 0.610352 nM, experiment r13-r23): 0.01294 and 0.01324
- Lanthascreen signal, sheet CDK2 ([2]; Compound 1.02544 nM, experiment r1-r11): 0.01157 and 0.009543
- Lanthascreen signal, sheet CDK2 ([2]; Compound 3.15521 nM, experiment r1-r11): 0.01134 and 0.008854
- Lanthascreen signal, sheet CDK2 ([2]; Compound 9.46563 nM, experiment r1-r11): 0.008629 and 0.01226
- Lanthascreen signal, sheet CDK2 ([2]; Compound 9.76563 nM, experiment r13-r23): 0.01333 and 0.01313
- Lanthascreen signal, sheet CDK2 ([2]; Compound 31.5521 nM, experiment r1-r11): 0.009538 and 0.01114
- Lanthascreen signal, sheet CDK2 ([2]; Compound 39.0625 nM, experiment r13-r23): 0.01348 and 0.0134
- Lanthascreen signal, sheet CDK2 ([2]; Compound 99.3891 nM, experiment r1-r11): 0.01108 and 0.01101
- Lanthascreen signal, sheet CDK2 ([2]; Compound 156.25 nM, experiment r13-r23): 0.01287 and 0.01355
- Lanthascreen signal, sheet CDK2 ([2]; Compound 315.521 nM, experiment r1-r11): 0.0103 and 0.01153
- Lanthascreen signal, sheet CDK2 ([2]; Compound 625 nM, experiment r13-r23): 0.01294 and 0.01314
- Lanthascreen signal, sheet CDK2 ([2]; Compound 2500 nM, experiment r13-r23): 0.01073 and 0.0108
- Lanthascreen signal, sheet CDK2 ([2]; Compound 3155.21 nM, experiment r1-r11): 0.01038 and 0.01039
- Lanthascreen signal, sheet CDK2 ([2]; Compound 10000 nM, experiment r13-r23): 0.01123 and 0.01202
- Lanthascreen signal, sheet CDK2 ([2]; Compound 10002 nM, experiment r1-r11): 0.01161 and 0.009572
- IC50 ([2]; Lanthascreen, average, Extended Data Fig. 8, read-out: CDK2 IC50): > 10000 nM
- IC50 ([2]; Supplementary Table 2, read-out: Lanthascreen IC50 [nM] CDK2): > 10000 nM
- IC50 ([3]; Supplementary Table 2, read-out: Lanthascreen IC50 [nM] CDK9): 1110 nM
- Lanthascreen TR-FRET signal (raw ratio), sheet CDK9 ([3]; compound 0.038147 nM, second titration set (r13)): 0.01383 and 0.01355
- Lanthascreen TR-FRET signal (raw ratio), sheet CDK9 ([3]; compound 0.152588 nM, second titration set (r13)): 0.0139 and 0.01441
- Lanthascreen TR-FRET signal (raw ratio), sheet CDK9 ([3]; compound 0.610352 nM, second titration set (r13)): 0.01347 and 0.01396
- Lanthascreen TR-FRET signal (raw ratio), sheet CDK9 ([3]; compound 1.02544 nM, first titration set (r1)): 0.01429 and 0.01561
- Lanthascreen TR-FRET signal (raw ratio), sheet CDK9 ([3]; compound 3.15521 nM, first titration set (r1)): 0.01467 and 0.01402
- Lanthascreen TR-FRET signal (raw ratio), sheet CDK9 ([3]; compound 9.46563 nM, first titration set (r1)): 0.01439 and 0.01388
- Lanthascreen TR-FRET signal (raw ratio), sheet CDK9 ([3]; compound 9.76563 nM, second titration set (r13)): 0.01427 and 0.01339
- Lanthascreen TR-FRET signal (raw ratio), sheet CDK9 ([3]; compound 31.5521 nM, first titration set (r1)): 0.01459 and 0.0177
- Lanthascreen TR-FRET signal (raw ratio), sheet CDK9 ([3]; compound 39.0625 nM, second titration set (r13)): 0.01365 and 0.01337
- Lanthascreen TR-FRET signal (raw ratio), sheet CDK9 ([3]; compound 99.3891 nM, first titration set (r1)): 0.01319 and 0.01787
- Lanthascreen TR-FRET signal (raw ratio), sheet CDK9 ([3]; compound 156.25 nM, second titration set (r13)): 0.01319 and 0.01335
- Lanthascreen TR-FRET signal (raw ratio), sheet CDK9 ([3]; compound 315.521 nM, first titration set (r1)): 0.01154 and 0.01497
- Lanthascreen TR-FRET signal (raw ratio), sheet CDK9 ([3]; compound 625 nM, second titration set (r13)): 0.01033 and 0.01039
- Lanthascreen TR-FRET signal (raw ratio), sheet CDK9 ([3]; compound 2500 nM, second titration set (r13)): 0.00843 and 0.008233
- Lanthascreen TR-FRET signal (raw ratio), sheet CDK9 ([3]; compound 3155.21 nM, first titration set (r1)): 0.01003 and 0.01129
- Lanthascreen TR-FRET signal (raw ratio), sheet CDK9 ([3]; compound 10000 nM, second titration set (r13)): 0.006379 and 0.005879
- Lanthascreen TR-FRET signal (raw ratio), sheet CDK9 ([3]; compound 10002 nM, first titration set (r1)): 0.009746 and 0.009366
- IC50 ([4]; Lanthascreen, average, Extended Data Fig. 8, read-out: CDK12 IC50): > 10000 nM
- IC50 ([4]; Supplementary Table 2, read-out: Lanthascreen IC50 [nM] CDK12): > 10000 nM
- Lanthascreen raw signal, sheet CDK12 ([4]; compound 0.038147 nM, series r13): 0.0112 and 0.01094
- Lanthascreen raw signal, sheet CDK12 ([4]; compound 0.152588 nM, series r13): 0.01131 and 0.01094
- Lanthascreen raw signal, sheet CDK12 ([4]; compound 0.610352 nM, series r13): 0.0113 and 0.01155
- Lanthascreen raw signal, sheet CDK12 ([4]; compound 1.02544 nM, series r1): 0.009008 and 0.01048
- Lanthascreen raw signal, sheet CDK12 ([4]; compound 3.15521 nM, series r1): 0.01033 and 0.00928
- Lanthascreen raw signal, sheet CDK12 ([4]; compound 9.46563 nM, series r1): 0.007656 and 0.01097
- Lanthascreen raw signal, sheet CDK12 ([4]; compound 9.76563 nM, series r13): 0.01084 and 0.01176
- Lanthascreen raw signal, sheet CDK12 ([4]; compound 31.5521 nM, series r1): 0.008129 and 0.008647
- Lanthascreen raw signal, sheet CDK12 ([4]; compound 39.0625 nM, series r13): 0.01123 and 0.01099
- Lanthascreen raw signal, sheet CDK12 ([4]; compound 99.3891 nM, series r1): 0.008644 and 0.009455
- Lanthascreen raw signal, sheet CDK12 ([4]; compound 156.25 nM, series r13): 0.01158 and 0.0119
- Lanthascreen raw signal, sheet CDK12 ([4]; compound 315.521 nM, series r1): 0.008456 and 0.007711
- Lanthascreen raw signal, sheet CDK12 ([4]; compound 625 nM, series r13): 0.01045 and 0.01083
- Lanthascreen raw signal, sheet CDK12 ([4]; compound 2500 nM, series r13): 0.01145 and 0.01174
- Lanthascreen raw signal, sheet CDK12 ([4]; compound 3155.21 nM, series r1): 0.008398 and 0.008586
- Lanthascreen raw signal, sheet CDK12 ([4]; compound 10000 nM, series r13): 0.01298 and 0.0125
- Lanthascreen raw signal, sheet CDK12 ([4]; compound 10002 nM, series r1): 0.01123 and 0.01167
SMILES: O=C(CSc1nnc2c(n1)[nH]c1ccccc12)Nc1ccc(Cl)cn1 [dCeMM2]
- EC50 ([5]; Homo sapiens, HEK-293T, HEK293T viability, 72 h, compound alone, read-out: Cellular assays EC50): 1420 nM
- Toxicity rescue ([5]; MLN4924-mediated cytotoxicity rescue, 10 µM used where n.d.): 398%
